pEC50, pIC50: −log10 of the molar value.
Columns and labels:
[1] = system: LPS-induced TNFα release in d-U937 cells; experiment: LPS-induced TNFα release in d-U937 cells; format: cell-based; details: Homo sapiens, dU937, relative to 10 μg/mL BIRB796, read-out: LPS Induced Release of Cytokine in d-937 Cells TNFα REC50
How it was run: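 Read-out: TNFα and IL-8 released into supernatant, sandwich ELISA, expressed as inhibition versus vehicle at each dose and fitted to give REC50. Cells were PMA-differentiated U937 (100 ng/mL, 48–72 hr), compound-exposed 2 hr before a 4 hr LPS stimulus (0.1 μg/mL).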

[2] = system: PBMC cells; experiment: Cell mitosis assay; format: cell-based, human
Method: Peripheral blood mononucleocytes (PBMCs) from healthy subjects are separated from whole blood (Quintiles, London, UK) using a density gradient (Histopaque-1077, Sigma-Aldrich, Poole, UK). The PBMCs (3 million cells per sample) are subsequently treated with 2% PHA (Sigma-Aldrich, Poole, UK) for 48 hr, followed by a 20 hr exposure to varying concentrations of test compounds. At 2 hr before collection, PBMCs are treated with demecolcine (0.1 μg/mL) (Invitrogen, Paisley, UK,) to arrest cells in metaphase. To observe mitotic cells, PBMCs are permeabilised and fixed by adding Intraprep (50 μL) (Beckman Coulter, France), and stained with anti-phospho-histone 3 (0.26 ng/L) (#9701; Cell Signalling, Danvers, Mass.) and propidium iodide (1 mg/mL) (Sigma-Aldrich, Poole, UK,) as previously described (Muehlbauer P. A. and Schuler M. J., Mutation Research, 2003, 537:117-130). Fluorescence is observed using an ATTUNE flow cytometer (Invitrogen, Paisley, UK), gating for lymphocytes.

[3] = target: p38 MAPKα (Homo sapiens (Human), UniProt Q16539); experiment: p38 MAPKα enzyme inhibition (FRET, Z-LYTE); format: biochemical
[4] = target: GSK3α (Homo sapiens (Human), UniProt P49840); experiment: GSK 3α enzyme inhibition (FRET, Z-LYTE); format: biochemical
How it was run: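 GSK3α (500 ng/mL stock) was preincubated 2 hr at RT with compound (4 to 0.004 μg/mL stocks), then FRET peptide (8 μM stock) and ATP (40 μM stock) added for 1 hr. Protease development for 1 hr cleaved unphosphorylated peptide; coumarin/fluorescein emission ratio reported phosphorylation.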

[5] = system: Poly I:C-induced ICAM-1 expression in BEAS2B cells; experiment: Poly I:C-induced ICAM-1 expression in BEAS2B cells; format: cell-based; details: Homo sapiens, BEAS-2B, read-out: Poly IC induced ICAM1 in BEAS2B IC50
How it was run: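 BEAS2B human bronchial epithelial cells pre-incubated with compound for 2 hr, then transfected with 1 μg/mL poly I:C plus Oligofectamine. At 18 hr, surface ICAM-1 measured by cell-based ELISA (HRP, OD450–655). Signal corrected for cell number by crystal violet OD595.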

[6] = system: d-U937 cells; experiment: Cell viability: MTT assay; format: cell-based, human; details: 1 μg/mL
How it was run: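 Differentiated U937 cells were exposed to compound at 1 or 10 μg/mL either 4 h in 5% FCS RPMI1640 or 24 h in 10% FCS RPMI1640, then given MTT for 1 h, DMSO-solubilised and read at 550 nm. Percent viability loss versus 0.5% DMSO vehicle; apparent gains appear negative.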

[7] = system: LPS-induced IL-8 release in d-U937 cells; experiment: LPS-induced IL-8 release in d-U937 cells; format: cell-based; details: Homo sapiens, dU937, read-out: LPS Induced Release of Cytokine in d-937 Cells IL-8 IC50
How it was run: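 PMA-differentiated (100 ng/mL, 48–72 hr) U937 cells pre-incubated with compound 2 hr, then stimulated with LPS (0.1 μg/mL, E. coli O111:B4) for 4 hr. Supernatant TNFα and IL-8 measured by sandwich ELISA; inhibition versus vehicle control, REC50 from concentration-response curve.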

[8] = target: cSrc (Homo sapiens (Human), UniProt P12931); experiment: c-Src enzyme inhibition (FRET, Z-LYTE); format: biochemical
How it was run: (§1)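 Z-LYTE FRET kinase assay: enzyme (3000 or 2000 ng/mL stock, respectively) preincubated 2 h at RT with compound (4–0.004 μg/mL stocks), then FRET peptide plus ATP (800 μM stock for c-Src, 60 μM for Syk) added for 1 h. Protease development 1 h; phosphorylation from coumarin/fluorescein emission ratio.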

[9] = target: Syk (Homo sapiens (Human), UniProt P43405); experiment: Syk enzyme inhibition (FRET, Z-LYTE); format: biochemical
How it was run: as §1

[10] = system: HRV16; experiment: HRV16 induced CPE in MRC5 cells; format: cell-based, human rhinovirus; details: for HRV induced CPE in MRC5 Cells % Inhibition Observed: screened at concentrations up to 0.32 ng/mL
Method: The supernatants are aspirated, and then fresh media added followed by incubation for 4 days. Where appropriate, cells are pre-incubated with compound or DMSO for 2 hr, and the compounds and DMSO added again after washout of the virus.
Supernatants are aspirated and incubated with methylene blue solution (100 μL, 2% formaldehyde, 10% methanol and 0.175% Methylene Blue) for 2 hr at RT. […] The percentage inhibition for each well is calculated. The IC50 value is calculated from the concentration-response curve generated by the serial dilutions of the test compounds.

Sequence of cSrc (P12931 whole entry, looked up): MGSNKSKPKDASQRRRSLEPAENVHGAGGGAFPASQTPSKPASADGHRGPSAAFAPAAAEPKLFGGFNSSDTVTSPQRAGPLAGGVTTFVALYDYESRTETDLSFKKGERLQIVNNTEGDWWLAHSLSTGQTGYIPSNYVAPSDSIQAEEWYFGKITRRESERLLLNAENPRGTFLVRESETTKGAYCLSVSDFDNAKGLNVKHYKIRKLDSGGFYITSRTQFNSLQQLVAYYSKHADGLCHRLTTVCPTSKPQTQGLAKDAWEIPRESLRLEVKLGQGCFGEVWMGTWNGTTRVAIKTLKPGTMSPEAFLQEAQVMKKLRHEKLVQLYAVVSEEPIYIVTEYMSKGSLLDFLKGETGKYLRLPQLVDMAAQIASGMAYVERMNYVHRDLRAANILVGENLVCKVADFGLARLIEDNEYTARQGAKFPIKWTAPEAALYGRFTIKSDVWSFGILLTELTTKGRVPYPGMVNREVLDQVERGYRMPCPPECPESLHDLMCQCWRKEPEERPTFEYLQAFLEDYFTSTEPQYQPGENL
Sequence of p38 MAPKα (Q16539 whole entry): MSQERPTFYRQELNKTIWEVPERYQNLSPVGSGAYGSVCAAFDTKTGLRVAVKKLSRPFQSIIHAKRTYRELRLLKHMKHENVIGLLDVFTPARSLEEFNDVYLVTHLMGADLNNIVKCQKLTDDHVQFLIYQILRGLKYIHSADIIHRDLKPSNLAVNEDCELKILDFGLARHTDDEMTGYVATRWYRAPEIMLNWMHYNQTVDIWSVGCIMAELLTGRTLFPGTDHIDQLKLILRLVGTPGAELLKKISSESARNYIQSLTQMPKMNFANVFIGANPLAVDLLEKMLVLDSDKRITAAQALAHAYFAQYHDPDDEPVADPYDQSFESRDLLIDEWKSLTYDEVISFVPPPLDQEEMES
Sequence of GSK3α (P49840 whole entry): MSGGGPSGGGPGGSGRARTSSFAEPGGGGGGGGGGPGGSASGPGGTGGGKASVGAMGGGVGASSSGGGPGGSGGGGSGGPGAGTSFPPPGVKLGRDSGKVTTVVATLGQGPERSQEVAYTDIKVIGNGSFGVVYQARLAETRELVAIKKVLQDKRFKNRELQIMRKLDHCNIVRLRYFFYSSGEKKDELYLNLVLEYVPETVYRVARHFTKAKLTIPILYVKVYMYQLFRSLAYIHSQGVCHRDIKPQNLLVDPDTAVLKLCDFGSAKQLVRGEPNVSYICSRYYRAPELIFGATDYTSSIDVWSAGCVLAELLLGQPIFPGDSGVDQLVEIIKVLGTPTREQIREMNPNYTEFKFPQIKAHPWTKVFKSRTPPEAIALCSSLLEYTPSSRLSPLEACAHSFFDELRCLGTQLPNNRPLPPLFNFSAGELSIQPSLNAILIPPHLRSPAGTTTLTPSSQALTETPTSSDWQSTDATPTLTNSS

| SMILES | pEC50 [1] | Mitosis Assay % inhibition in PBMC cells at 5 μg/mL [2] [%] | pIC50 [3] | pIC50 [4] | pIC50 [5] | MTT Assay Cell viability at time point in d-U937 cells 4 h [6] | MTT Assay Cell viability at time point in d-U937 cells 24 h [6] | pIC50 [7] | pIC50 [8] | pIC50 [9] | pIC50 ([10]; Human rhinovirus sp., HRV16, MRC5, read-out: HRV induced CPE in MRC5 Cells IC50) | HRV induced CPE in MRC5 Cells % Inhibition Observed [10] [%] |
| --- | --- | --- | --- | --- | --- | --- | --- | --- | --- | --- | --- | --- |
| CC(C)(C)c1cc(NC(=O)Nc2ccc(Oc3cc(Nc4ccc5[nH]ncc5c4)ncn3)c3ccccc23)n(-c2ccc(OCCN3CCOCC3)cc2)n1 [Example 70, 1-(4-((6-((1H-indazol-5-yl)amino)pyrimidin-4-yl)oxy)naphthalen-1-yl)-3-(3-(tert-butyl)-1-(4-(2-morpholinoethoxy)phenyl)-1H-pyrazol-5-yl)urea] | 8.60 | 62.4 | 7.48 | 5.49 | 8.39 | −ve (−ve and +ve indicate that the value is below and above respectively, the no significant effect threshold, defined as 30% inhibition at 1 μg/mL at the time point indicated.) | −ve (−ve and +ve indicate that the value is below and above respectively, the no significant effect threshold, defined as 30% inhibition at 1 μg/mL at the time point indicated.) | 8.57 | 7.89 | 7.85 | – | – |
| COc1ccc(-n2nc(C(C)C)cc2NC(=O)Nc2ccc(Oc3ccnc(Nc4cc(C)c5[nH]ncc5c4)n3)c3ccccc23)cc1 [Example 9, 1-(3-Isopropyl-1-(4-methoxyphenyl)-1H-pyrazol-5-yl)-3-(4-((2-((7-methyl-1H-indazol-5-yl)amino)pyrimidin-4-yl)oxy)naphthalen-1-yl)urea] | 8.80 | 23.7 | 7.42 | < 4.81 | 8.92 | −ve (−ve and +ve indicate that the value is below and above respectively, the no significant effect threshold, defined as 30% inhibition at 1 μg/mL at the time point indicated.) | −ve (−ve and +ve indicate that the value is below and above respectively, the no significant effect threshold, defined as 30% inhibition at 1 μg/mL at the time point indicated.) | 8.41 | 8.40 | 8.15 | – | – |
| CC(C)(C)c1cc(NC(=O)Nc2ccc(Oc3ccnc(Nc4ccc5c(c4)NC(=O)C5)n3)c3ccccc23)n(-c2ccc(OCCN3CCOCC3)nc2)n1 [Example 90, 1-(3-(tert-butyl)-1-(6-(2-morpholinoethoxy)pyridin-3-yl)-1H-pyrazol-5-yl)-3-(4-((2-((2-oxoindolin-6-yl)amino)pyrimidin-4-yl)oxy)naphthalen-1-yl)urea] | 8.80 | 15.4 | 7.36 | 6.57 | 7.84 | −ve (−ve and +ve indicate that the value is below and above respectively, the no significant effect threshold, defined as 30% inhibition at 1 μg/mL at the time point indicated.) | −ve (−ve and +ve indicate that the value is below and above respectively, the no significant effect threshold, defined as 30% inhibition at 1 μg/mL at the time point indicated.) | 8.39 | > 9.00 | > 9.00 | – | – |
| Cc1ccc(-n2nc(C(C)(C)C)cc2NC(=O)Nc2ccc(Oc3ccnc(Nc4ccc5[nH]nnc5c4)n3)c3ccccc23)cc1 [Example 36, 1-(4-((2-((1H-benzo[d][1,2,3]triazol-5-yl)amino)pyrimidin-4-yl)oxy)naphthalen-1-yl)-3-(3-(tert-butyl)-1-(p-tolyl)-1H-pyrazol-5-yl)urea] | 7.76 | 41.2 | 7.04 | 5.68 | 8.20 | −ve (−ve and +ve indicate that the value is below and above respectively, the no significant effect threshold, defined as 30% inhibition at 1 μg/mL at the time point indicated.) | −ve (−ve and +ve indicate that the value is below and above respectively, the no significant effect threshold, defined as 30% inhibition at 1 μg/mL at the time point indicated.) | 8.64 | 7.85 | 7.12 | – | – |
| CC(C)(C)c1cc(NC(=O)Nc2ccc(Oc3ccnc(Nc4ccc5[nH]ncc5c4)n3)c3ccccc23)n(-c2cccc(OCCN3CCOCC3)c2)n1 [Example 54, 1-(4-((2-((1H-indazol-5-yl)amino)pyrimidin-4-yl)oxy)naphthalen-1-yl)-3-(3-(tert-butyl)-1-(3-(2-morpholinoethoxy)phenyl)-1H-pyrazol-5-yl)urea] | 8.06 | – | 7.96 | 5.70 | 7.99 | −ve (−ve and +ve indicate that the value is below and above respectively, the no significant effect threshold, defined as 30% inhibition at 1 μg/mL at the time point indicated.) | −ve (−ve and +ve indicate that the value is below and above respectively, the no significant effect threshold, defined as 30% inhibition at 1 μg/mL at the time point indicated.) | 7.61 | 8.15 | 8.05 | 9.40 | – |
| Cc1ccc(-n2nc(C(C)(C)C)cc2NC(=O)Nc2ccc(Oc3ccnc(Nc4ccc5onc(N)c5c4)n3)c3ccccc23)cc1 [Example 5, 1-(4-((2-((3-Aminobenzo[d]isoxazol-5-yl)amino)pyrimidin-4-yl)oxy)naphthalen-1-yl)-3-(3-(tert-butyl)-1-(p-tolyl)-1H-pyrazol-5-yl)urea] | 8.96 | – | 7.09 | < 5.81 | 9.22 | −ve (−ve and +ve indicate that the value is below and above respectively, the no significant effect threshold, defined as 30% inhibition at 1 μg/mL at the time point indicated.) | −ve (−ve and +ve indicate that the value is below and above respectively, the no significant effect threshold, defined as 30% inhibition at 1 μg/mL at the time point indicated.) | 8.77 | < 5.81 | 7.31 | – | 100 |
| CC(C)(C)c1cc(NC(=O)Nc2ccc(Oc3ccnc(Nc4ccc5[nH]ncc5c4)n3)c3ccccc23)n(-c2ccc(OCCN3CCOCC3)nc2)n1 [Example 15, 1-(4-((2-((1H-Indazol-5-yl)amino)pyrimidin-4-yl)oxy)naphthalen-1-yl)-3-(3-(tert-butyl)-1-(6-(2-morpholinoethoxy)pyridin-3-yl)-1H-pyrazol-5-yl)urea] | 8.80 | – | 7.66 | 5.85 | 8.68 | −ve (−ve and +ve indicate that the value is below and above respectively, the no significant effect threshold, defined as 30% inhibition at 1 μg/mL at the time point indicated.) | −ve (−ve and +ve indicate that the value is below and above respectively, the no significant effect threshold, defined as 30% inhibition at 1 μg/mL at the time point indicated.) | 8.80 | > 9.00 | 8.15 | – | 56 |

Source: patent publication US9249125B2, “Pyrazole derivatives as p38 MAP inhibitors” (RESPIVERT LIMITED, priority 2012, dated 2016)
